Several values for one entry are separate records, joined by “and”; a condition that tells them apart may be missing. Equal entries are not always repeated. Inconclusive results and toxic doses are left out. The calls were made as follows: active = survival T/C of 150% or more; inactive = T/C below 125% in these data.
Test system: P388 leukemia ip, CD2F1 mice, survival T/C
Assay: NCI In Vivo Anticancer Drug Screen. Data for tumor model P388 Leukemia (intraperitoneal) in CD2F1 (CDF1) mice
Details: endpoint: median survival time, higher = longer survival
In short: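 Mice carrying the transplanted tumor received test compound or vehicle. Survival was recorded in each group, and the value is the treated-group measurement divided by that of the vehicle-treated control group.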

[1] = dose: 100.0 mg/kg/injection, schedule: Q01DX001 (ip), vehicle: Klucel (hydroxypropylcellulose) (HPC)
[2] = dose: 200.0 mg/kg/injection, schedule: Q01DX001 (ip), vehicle: Klucel (hydroxypropylcellulose) (HPC)
[3] = dose: 400.0 mg/kg/injection, schedule: Q01DX001 (ip), vehicle: Klucel (hydroxypropylcellulose) (HPC)
[4] = dose: 100.0 mg/kg/injection, schedule: Q04DX002 (ip), vehicle: Klucel (hydroxypropylcellulose) (HPC)
[5] = dose: 200.0 mg/kg/injection, schedule: Q04DX002 (ip), vehicle: Klucel (hydroxypropylcellulose) (HPC)
[6] = dose: 60.0 mg/kg/injection, schedule: Q01DX005 (ip), vehicle: saline with Tween-80
[7] = dose: 120.0 mg/kg/injection, schedule: Q01DX005 (ip), vehicle: saline with Tween-80
[8] = dose: 240.0 mg/kg/injection, schedule: Q01DX005 (ip), vehicle: saline with Tween-80
[9] = dose: 50.0 mg/kg/injection, schedule: Q01DX005 (ip), vehicle: saline with Tween-80
[10] = dose: 100.0 mg/kg/injection, schedule: Q01DX005 (ip), vehicle: saline with Tween-80
[11] = dose: 200.0 mg/kg/injection, schedule: Q01DX005 (ip), vehicle: saline with Tween-80
[12] = dose: 25.0 mg/kg/injection, schedule: Q01DX009 (ip), vehicle: saline
[13] = dose: 50.0 mg/kg/injection, schedule: Q01DX009 (ip), vehicle: saline
[14] = dose: 100.0 mg/kg/injection, schedule: Q04DX003 (ip), vehicle: Klucel (hydroxypropylcellulose) (HPC)
[15] = dose: 50.0 mg/kg/injection, schedule: Q01DX009 (ip), vehicle: saline with Tween-80
[16] = dose: 100.0 mg/kg/injection, schedule: Q01DX009 (ip), vehicle: saline with Tween-80
[17] = dose: 200.0 mg/kg/injection, schedule: Q01DX009 (ip), vehicle: saline with Tween-80
[18] = dose: 100.0 mg/kg/injection, schedule: Q01DX009 (ip), vehicle: saline

Measured: T/C

COc1c(C)cc(C)c(CBr)c1-c1c(CBr)c(C)cc(C)c1OC
inactive: [1] 95 % of control | [2] 93 % of control | [3] 88 % of control

O=[N+]([O-])c1ccc(S(=O)C2CCCCC2Cl)c([N+](=O)[O-])c1 (stereo unspecified)
inactive: [4] 110 % of control | [5] 113 % of control

Nc1ccn(COC(COCc2ccccc2)COCc2ccccc2)c(=O)n1
inactive: [6] 105 % of control | [7] 96 % of control | [8] 110 % of control

CCCC1(c2ccccc2)CCCC(C#N)C1=O (stereo unspecified)
inactive: [4] 104 % of control | [5] 107 % of control | dose: 400.0 mg/kg/injection, schedule: Q04DX002 (ip), vehicle: Klucel (hydroxypropylcellulose) (HPC) 106 % of control

O=S1(=O)NC(=NC2CCCCC2)c2ccccc21
inactive: [9] 105 % of control | [10] 105 % of control | [11] 99 % of control

CC(C)[N+](C)(C)CC(O)COc1ccccc1-c1ccccc1 (stereo unspecified)
inactive: dose: 12.5 mg/kg/injection, schedule: Q01DX009 (ip), vehicle: saline 100 % of control | [12] 98 % of control | [13] 93 % of control and 97 % of control

CNC(=O)CCC(NS(=O)(=O)c1ccc(NC(C)=O)cc1)C(=O)O (stereo unspecified)
inactive: [1] 105 % of control | [2] 98 % of control | [3] 100 % of control

CCC1c2ccccc2[C@H]2C(c3ccccc3)=NN(c3ccccc3)[C@H]2N1CC (stereo partly specified)
inactive: [9] 100 % of control | [10] 92 % of control | [11] 90 % of control

Cc1cc(C)nc(NCCCCNc2nc(C)cc(C)n2)n1
inactive: dose: 50.0 mg/kg/injection, schedule: Q01DX005 (ip), vehicle: Klucel (hydroxypropylcellulose) (HPC) 92 % of control | dose: 100.0 mg/kg/injection, schedule: Q01DX005 (ip), vehicle: Klucel (hydroxypropylcellulose) (HPC) 105 % of control | dose: 200.0 mg/kg/injection, schedule: Q01DX005 (ip), vehicle: Klucel (hydroxypropylcellulose) (HPC) 100 % of control

C/C=C(\C)c1cc(OC)c(C)c(=O)o1
inactive: dose: 25.0 mg/kg/injection, schedule: Q04DX003 (ip), vehicle: Klucel (hydroxypropylcellulose) (HPC) 118 % of control | dose: 50.0 mg/kg/injection, schedule: Q04DX003 (ip), vehicle: Klucel (hydroxypropylcellulose) (HPC) 116 % of control | [14] 114 % of control

COc1ccc(C[n+]2ccc3c([N+](=O)[O-])cccc3c2)cc1
inactive: dose: 7.5 mg/kg/injection, schedule: Q01DX005 (ip), vehicle: saline + Tween-80 + alcohol 111 % of control | dose: 15.0 mg/kg/injection, schedule: Q01DX005 (ip), vehicle: saline + Tween-80 + alcohol 116 % of control | dose: 30.0 mg/kg/injection, schedule: Q01DX005 (ip), vehicle: saline + Tween-80 + alcohol 116 % of control

Nc1nc(F)nc2c1nnn2C1OC(CO)C(O)C1O (stereo unspecified)
inactive: dose: 12.5 mg/kg/injection, schedule: Q01DX001 (ip), vehicle: saline 112 % of control | dose: 25.0 mg/kg/injection, schedule: Q01DX001 (ip), vehicle: saline 109 % of control | dose: 50.0 mg/kg/injection, schedule: Q01DX001 (ip), vehicle: saline 109 % of control | dose: 50.0 mg/kg/injection, schedule: Q01DX005 (ip), vehicle: saline 121 % of control | dose: 100.0 mg/kg/injection, schedule: Q01DX001 (ip), vehicle: saline 104 % of control | dose: 100.0 mg/kg/injection, schedule: Q01DX005 (ip), vehicle: saline 114 % of control

O=CNNC(=S)Nc1ccccc1
inactive: [15] 113 % of control | [16] 109 % of control | [17] 108 % of control

CCN(CC)CC1(CC(=O)N2c3ccccc3Sc3ccccc32)COC1
inactive: [13] 107 % of control | [18] 100 % of control | dose: 200.0 mg/kg/injection, schedule: Q01DX009 (ip), vehicle: saline 105 % of control

NC(=O)N=Nc1c(F)c(F)c(F)c(F)c1F
inactive: dose: 6.25 mg/kg/injection, schedule: Q01DX005 (ip), vehicle: saline with Tween-80 103 % of control | dose: 12.5 mg/kg/injection, schedule: Q01DX005 (ip), vehicle: saline with Tween-80 106 % of control | dose: 25.0 mg/kg/injection, schedule: Q01DX005 (ip), vehicle: saline with Tween-80 116 % of control | [9] 116 % of control | [10] 113 % of control

Cc1nc2oc(=O)cc(C)c2c(=O)[nH]1
inactive: dose: 60.0 mg/kg/injection, schedule: Q01DX005 (ip), vehicle: Klucel (hydroxypropylcellulose) (HPC) 91 % of control | dose: 120.0 mg/kg/injection, schedule: Q01DX005 (ip), vehicle: Klucel (hydroxypropylcellulose) (HPC) 96 % of control

Nc1nc(-c2ccccn2)cc2c(Cl)cccc12
inactive: [6] 86 % of control | [7] 115 % of control | [8] 97 % of control

CCN(CC)CCCC(C)Nc1cc(OC)c2nc(C)cc(Cl)c2c1OC (stereo unspecified)
inactive: [15] 87 % of control | [16] 87 % of control | [17] 95 % of control

CCOC(=O)C1Cc2nc(-c3ccccc3)ncc2C1=O (stereo unspecified)
inactive: dose: 12.5 mg/kg/injection, schedule: Q01DX009 (ip), vehicle: saline with Tween-80 107 % of control | dose: 25.0 mg/kg/injection, schedule: Q01DX009 (ip), vehicle: saline with Tween-80 107 % of control | [15] 101 % of control

CN1C2CCC(=O)C1CC2 (stereo unspecified)
inactive: dose: 6.25 mg/kg/injection, schedule: Q01DX005 (ip), vehicle: saline + Tween-80 + alcohol 100 % of control | dose: 12.5 mg/kg/injection, schedule: Q01DX005 (ip), vehicle: saline + Tween-80 + alcohol 100 % of control | dose: 25.0 mg/kg/injection, schedule: Q01DX005 (ip), vehicle: saline + Tween-80 + alcohol 99 % of control

CN1CC(=O)N=C1N
inactive: [14] 100 % of control | dose: 200.0 mg/kg/injection, schedule: Q04DX003 (ip), vehicle: Klucel (hydroxypropylcellulose) (HPC) 100 % of control | dose: 400.0 mg/kg/injection, schedule: Q04DX003 (ip), vehicle: Klucel (hydroxypropylcellulose) (HPC) 105 % of control

COc1ccc(CCNC(=O)c2ccc(OC)c(OCc3ccccc3)c2)cc1OC
inactive: dose: 25.0 mg/kg/injection, schedule: Q01DX009 (ip), vehicle: other 97 % of control | dose: 50.0 mg/kg/injection, schedule: Q01DX009 (ip), vehicle: other 95 % of control | dose: 100.0 mg/kg/injection, schedule: Q01DX009 (ip), vehicle: other 89 % of control | dose: 200.0 mg/kg/injection, schedule: Q01DX009 (ip), vehicle: other 89 % of control | dose: 400.0 mg/kg/injection, schedule: Q01DX009 (ip), vehicle: other 90 % of control

O=P1(CNc2ccccc2)CN(c2ccccc2)CN(c2ccccc2)C1
inactive: dose: 12.5 mg/kg/injection, schedule: Q01DX001 (ip), vehicle: saline with Tween-80 100 % of control | dose: 25.0 mg/kg/injection, schedule: Q01DX001 (ip), vehicle: saline with Tween-80 100 % of control | dose: 50.0 mg/kg/injection, schedule: Q01DX001 (ip), vehicle: saline with Tween-80 100 % of control

CN1[C@@H](CC(=O)c2ccccc2)CCC[C@H]1CC(=O)c1ccccc1
inactive: [12] 95 % of control | [13] 103 % of control | [18] 102 % of control

C1=CC2C3CSCC3C1C1CC21 (stereo unspecified)
inactive: dose: 100.0 mg/kg/injection, schedule: Q04DX003 (ip), vehicle: saline 105 % of control | dose: 200.0 mg/kg/injection, schedule: Q04DX003 (ip), vehicle: saline 103 % of control | dose: 400.0 mg/kg/injection, schedule: Q04DX003 (ip), vehicle: saline 102 % of control

NC(=O)CCSC1=CC(=O)c2ccccc2C1=O
inactive: dose: 3.13 mg/kg/injection, schedule: Q04DX003 (ip), vehicle: saline with Tween-80 103 % of control | dose: 6.25 mg/kg/injection, schedule: Q04DX003 (ip), vehicle: saline with Tween-80 110 % of control | dose: 12.5 mg/kg/injection, schedule: Q04DX003 (ip), vehicle: saline with Tween-80 103 % of control and 110 % of control

O=C1C2C3(CCl)C1C23CCl (stereo unspecified)
inactive: dose: 7.5 mg/kg/injection, schedule: Q01DX005 (ip), vehicle: Klucel (hydroxypropylcellulose) (HPC) 108 % of control | dose: 15.0 mg/kg/injection, schedule: Q01DX005 (ip), vehicle: Klucel (hydroxypropylcellulose) (HPC) 104 % of control | dose: 30.0 mg/kg/injection, schedule: Q01DX005 (ip), vehicle: Klucel (hydroxypropylcellulose) (HPC) 108 % of control

From PubChem BioAssay AID330 (DTP/NCI, 2004)
